Source: patent EP4729522A1, “CRYSTAL FORMS OF SODIUM SALT OF POLYCYCLIC CARBAMOYLPYRIDONE DERIVATIVE, AND PREPARATION METHOD THEREFOR AND USE THEREOF” (Jiangsu Aidea Pharmaceutical Group Co., Ltd., priority 2023, dated 2024)
Entries after “also recorded” stand apart in the source; their conditions may differ. Where a name gives a salt, the structure may show the parent alone.

Legend:
Type in all cases: physicochemical
[1] = Hygroscopicity by Dynamic Vapor Sorption (DVS)
Method: [table] […] The sample, after DVS testing, was then analyzed by XRPD. Table 8 DVS test results of sodium salts

[2] = High pressure property test (XRPD after pressing); conditions: pressed at 10 MPa for 5 minutes, 13 mm die
[3] = Simulated granulation test (ethanol wetting and grinding, XRPD); conditions: wetted with ethanol, then ground
Method: The resulting solid and the sample without the addition of wetting ethanol were analyzed by XRPD, respectively.

[4] = Influencing factors stability test (high temperature, high humidity, lighting; XRPD, HPLC, appearance); conditions: for Purity: HPLC
Method: The petri dishes were then transferred into constant temperature and humidity chambers under three different conditions: high temperature (60 °C, sealed), high relative humidity (RH: 90 ± 5%, 25 °C, open), and lighting (5000 ± 500 Lux, open). The samples were tested on Day 5 and Day 10.

[5] = Day 5, High humidity (RH 90 ± 5%, 25 °C, open)
[6] = Day 5, High temperature (60 °C, sealed)
[7] = Day 5, Lighting (5000 ± 500 Lux, open)
[8] = Day 10, High humidity (RH 90 ± 5%, 25 °C, open)
[9] = Day 10, High temperature (60 °C, sealed)
[10] = Day 10, Lighting (5000 ± 500 Lux, open)

C[C@H]1N2C(=O)c3c(O)c(=O)c(C(=O)NCc4ccc(F)cc4F)cn3C[C@@H]2OCC12CC2 [Sodium salt crystal form A]
weight gain at 80% relative humidity (RH) ([1]; DVS, 80% RH, 25°C): 0.69% | Adsorption ([1]; Relative humidity 0%, adsorption (cycle 1 of 2), 25°C): 0.0000% | Adsorption ([1]; Relative humidity 0%, adsorption (cycle 2 of 2), 25°C): -0.0471% | Desorption ([1]; Relative humidity 0%, desorption (cycle 2 of 2), 25°C): -0.0614% | Desorption ([1]; Relative humidity 0%, first desorption (cycle 1 of 2), 25°C): -0.0471% | Adsorption ([1]; Relative humidity 10%, adsorption (cycle 1 of 2), 25°C): 0.0668% | Adsorption ([1]; Relative humidity 10%, adsorption (cycle 2 of 2), 25°C): 0.0230% | Desorption ([1]; Relative humidity 10%, desorption (cycle 2 of 2), 25°C): 0.0147% | Desorption ([1]; Relative humidity 10%, first desorption (cycle 1 of 2), 25°C): 0.0285% | Adsorption ([1]; Relative humidity 20%, adsorption (cycle 1 of 2), 25°C): 0.1197% | Adsorption ([1]; Relative humidity 20%, adsorption (cycle 2 of 2), 25°C): 0.0818% | Desorption ([1]; Relative humidity 20%, desorption (cycle 2 of 2), 25°C): 0.0758% | Desorption ([1]; Relative humidity 20%, first desorption (cycle 1 of 2), 25°C): 0.0891% | Adsorption ([1]; Relative humidity 30%, adsorption (cycle 1 of 2), 25°C): 0.1725% | Adsorption ([1]; Relative humidity 30%, adsorption (cycle 2 of 2), 25°C): 0.1394% | Desorption ([1]; Relative humidity 30%, desorption (cycle 2 of 2), 25°C): 0.1373% | Desorption ([1]; Relative humidity 30%, first desorption (cycle 1 of 2), 25°C): 0.1498% | Adsorption ([1]; Relative humidity 40%, adsorption (cycle 1 of 2), 25°C): 0.2282% | Adsorption ([1]; Relative humidity 40%, adsorption (cycle 2 of 2), 25°C): 0.2001% | Desorption ([1]; Relative humidity 40%, desorption (cycle 2 of 2), 25°C): 0.2149% | Desorption ([1]; Relative humidity 40%, first desorption (cycle 1 of 2), 25°C): 0.2239% | Adsorption ([1]; Relative humidity 50%, adsorption (cycle 1 of 2), 25°C): 0.2857% | Adsorption ([1]; Relative humidity 50%, adsorption (cycle 2 of 2), 25°C): 0.2641% | Desorption ([1]; Relative humidity 50%, desorption (cycle 2 of 2), 25°C): 0.3200% | Desorption ([1]; Relative humidity 50%, first desorption (cycle 1 of 2), 25°C): 0.3320% | Adsorption ([1]; Relative humidity 60%, adsorption (cycle 1 of 2), 25°C): 0.3539% | Adsorption ([1]; Relative humidity 60%, adsorption (cycle 2 of 2), 25°C): 0.3365% | Desorption ([1]; Relative humidity 60%, desorption (cycle 2 of 2), 25°C): 0.5185% | Desorption ([1]; Relative humidity 60%, first desorption (cycle 1 of 2), 25°C): 0.5250% | Adsorption ([1]; Relative humidity 70%, adsorption (cycle 1 of 2), 25°C): 0.5505% | Adsorption ([1]; Relative humidity 70%, adsorption (cycle 2 of 2), 25°C): 0.5627% | Desorption ([1]; Relative humidity 70%, desorption (cycle 2 of 2), 25°C): 0.6037% | Desorption ([1]; Relative humidity 70%, first desorption (cycle 1 of 2), 25°C): 0.6126% | Adsorption ([1]; Relative humidity 80%, adsorption (cycle 1 of 2), 25°C): 0.6895% | Adsorption ([1]; Relative humidity 80%, adsorption (cycle 2 of 2), 25°C): 0.6928% | Desorption ([1]; Relative humidity 80%, desorption (cycle 2 of 2), 25°C): 0.7082% | Desorption ([1]; Relative humidity 80%, first desorption (cycle 1 of 2), 25°C): 0.7176% | Adsorption ([1]; Relative humidity 90%, adsorption (cycle 1 of 2), 25°C): 0.9012% | Adsorption ([1]; Relative humidity 90%, adsorption (cycle 2 of 2), 25°C): 0.8889% | Desorption ([1]; Relative humidity 90%, desorption (cycle 2 of 2), 25°C): 0.8889% | Desorption ([1]; Relative humidity 90%, first desorption (cycle 1 of 2), 25°C): 0.9012% | After DVS testing Crystal form change ([1]; XRPD after DVS testing): did not change; also recorded: Crystal form A, unchanged | crystal form after the high-pressure test (XRPD) [2]: did not change | change in crystal form after ethanol wetting and grinding (XRPD) [3]: did not exhibit a change in crystal form | Property ([4]; Day 0): off-white solid | XRPD ([4]; Day 0): Crystal Form A | Purity ([4]; Day 0): 99.57% | Property [4, 5]: off-white solid | XRPD [4, 5]: Crystal Form A | Purity [4, 5]: 99.64% | Property [4, 6]: off-white solid | XRPD [4, 6]: Crystal Form A | Purity [4, 6]: 99.69% | Property [4, 7]: off-white solid | XRPD [4, 7]: Crystal Form A | Purity [4, 7]: 99.68% | Property [4, 8]: off-white solid | XRPD [4, 8]: Crystal Form A | Purity [4, 8]: 99.72% | Property [4, 9]: off-white solid | XRPD [4, 9]: Crystal Form A | Purity [4, 9]: 99.72% | Property [4, 10]: off-white solid | XRPD [4, 10]: Crystal Form A | Purity [4, 10]: 99.72%
